Assay [1] deals with T1, CDGSH iron-sulfur domain-containing protein 2 (Homo sapiens, UniProt Q8N5K1).
T1 sequence (Q8N5K1 whole entry): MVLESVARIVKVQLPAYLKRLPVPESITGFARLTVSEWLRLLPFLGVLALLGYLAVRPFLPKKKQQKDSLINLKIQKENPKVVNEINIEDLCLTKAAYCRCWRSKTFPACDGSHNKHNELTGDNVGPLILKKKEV
Description: Binding affinity to recombinant human N-terminal His6-tagged NAF1 expressed in Escherichia coli by scintillation proximity assay. In general terms: Scintillation proximity formats need no separation of bound from free tracer.

Assay [2] addresses T2, CDGSH iron-sulfur domain-containing protein 2 (Homo sapiens) (UniProt Q8N5K1).
T2 sequence (whole entry): T1 sequence (Q8N5K1 whole entry)
Description: Binding affinity to NAF1 (unknown origin) expressed in human HepG2 cells assessed as inhibition of mitochondrial respiration at 30 uM. Format: cell-based.

Assay [3] concerns the target T2, CDGSH iron-sulfur domain-containing protein 2 (Homo sapiens). Description: Binding affinity to NAF1 in human HepG2 cells assessed as inhibition of mitochondrial respiration at 30 uM. The class given is cell-based.
For assay [4] the target is unchanged. The assay is described as follows: Binding affinity to NAF1 (unknown origin) expressed in human HepG2 cells assessed as increase in mitochondrial respiration at 30 uM relative to wild-type cells. Format: cell-based.

Activity calls are given as the source filed them. The rule behind the calls is not given here.

As usually defined, the IC50 is the point on the concentration scale where inhibition reaches its midpoint. With `CC(C)(C)c1cc(CC2SC(=O)N=C2O)cc(C(C)(C)C)c1O` (stereo not given), in assay [1], the IC50 came to 29.8 µM. Also, the inhibition entry in assay [2] and in assay [3] was “Active” throughout.
As for `CCc1ccc(CCOc2ccc(CC3SC(=O)NC3=O)cc2)nc1` (stereo not given) [PIOGLITAZONE], in assay [1], the IC50 amounted to 4.8 µM. Besides, the inhibition result in assay [2] and in assay [3] was “Active” each time. The Activity in assay [4] came out at 13%.
Regarding `CN(CCOc1ccc(CC2SC(=O)NC2=O)cc1)c1ccccn1` (stereo not given) [ROSIGLITAZONE], in assay [1], the IC50 worked out at 2.29 µM. Moreover, the inhibition entry in assay [2] and in assay [3] was “Active” in each case.
